Measured values published in patent US10988477B2 (Merck Patent GmbH, priority 2018, dated 2021).
pKi: −log10 of the molar value.

The compounds below were run against GCN2 kinase (Homo sapiens, UniProt Q9P2K8) (assay: GCN2 enzyme inhibition assay (Transcreener ADP2 fluorescence polarization)). Conditions: Enzyme activity for compounds of Formula IV; Ki(app), 280 μM ATP, 25° C.
Assay type: biochemical
Summary of the method: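 Human GCN2 (4 nM) preincubated 10 min with compound (0–8 μM) and 200 μM (RS)7 peptide in Tris-HCl pH 7.5, NaCl, MgCl2, DTT. Reaction started with 280 μM ATP, run 1 h at 25 °C. ADP detected by Transcreener fluorescence polarization. IC50 and Ki(app) fitted by tight-binding algorithm.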

Sequence of GCN2 kinase (Q9P2K8 whole entry): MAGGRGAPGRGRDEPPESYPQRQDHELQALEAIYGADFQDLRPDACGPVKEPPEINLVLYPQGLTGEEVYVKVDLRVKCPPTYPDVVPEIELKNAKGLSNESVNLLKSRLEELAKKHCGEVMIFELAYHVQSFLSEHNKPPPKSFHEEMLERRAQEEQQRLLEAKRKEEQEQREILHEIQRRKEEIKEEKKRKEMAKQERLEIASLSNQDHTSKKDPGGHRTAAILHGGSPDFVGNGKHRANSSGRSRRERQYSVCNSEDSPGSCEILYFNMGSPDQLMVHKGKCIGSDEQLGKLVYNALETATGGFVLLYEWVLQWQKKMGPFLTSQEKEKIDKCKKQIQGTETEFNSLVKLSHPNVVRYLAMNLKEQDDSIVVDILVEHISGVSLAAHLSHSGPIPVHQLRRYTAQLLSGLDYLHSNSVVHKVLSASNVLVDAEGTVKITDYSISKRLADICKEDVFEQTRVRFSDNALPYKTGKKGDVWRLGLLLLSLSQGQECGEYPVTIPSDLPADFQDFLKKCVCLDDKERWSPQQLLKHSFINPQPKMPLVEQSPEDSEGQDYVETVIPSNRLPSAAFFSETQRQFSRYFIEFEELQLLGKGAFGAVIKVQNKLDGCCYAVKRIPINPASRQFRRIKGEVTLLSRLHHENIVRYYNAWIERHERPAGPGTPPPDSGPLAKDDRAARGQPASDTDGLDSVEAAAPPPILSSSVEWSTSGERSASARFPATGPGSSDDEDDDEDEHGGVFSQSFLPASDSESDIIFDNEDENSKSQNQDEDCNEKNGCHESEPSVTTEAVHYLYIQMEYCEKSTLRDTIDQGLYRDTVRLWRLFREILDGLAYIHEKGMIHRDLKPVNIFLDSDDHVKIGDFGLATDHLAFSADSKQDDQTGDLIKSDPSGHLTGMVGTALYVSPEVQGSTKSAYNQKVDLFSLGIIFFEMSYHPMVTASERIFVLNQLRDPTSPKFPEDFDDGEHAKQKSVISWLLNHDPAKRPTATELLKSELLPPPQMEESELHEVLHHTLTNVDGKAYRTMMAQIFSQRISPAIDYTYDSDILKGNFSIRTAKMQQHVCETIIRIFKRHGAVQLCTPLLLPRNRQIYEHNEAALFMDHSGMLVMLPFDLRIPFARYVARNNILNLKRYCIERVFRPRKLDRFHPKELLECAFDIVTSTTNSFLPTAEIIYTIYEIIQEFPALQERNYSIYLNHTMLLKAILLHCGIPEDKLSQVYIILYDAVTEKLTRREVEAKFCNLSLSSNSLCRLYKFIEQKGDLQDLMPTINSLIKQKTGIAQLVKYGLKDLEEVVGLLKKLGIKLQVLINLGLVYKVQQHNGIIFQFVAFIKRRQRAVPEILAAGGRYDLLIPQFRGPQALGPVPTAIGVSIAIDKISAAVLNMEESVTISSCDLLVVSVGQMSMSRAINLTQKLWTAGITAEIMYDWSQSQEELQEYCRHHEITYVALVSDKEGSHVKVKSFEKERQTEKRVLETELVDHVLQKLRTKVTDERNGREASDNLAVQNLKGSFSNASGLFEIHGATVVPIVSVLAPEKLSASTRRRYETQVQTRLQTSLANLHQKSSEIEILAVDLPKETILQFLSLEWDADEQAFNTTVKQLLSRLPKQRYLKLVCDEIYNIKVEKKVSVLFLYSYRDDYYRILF

| Structure (SMILES) | pKi |
| --- | --- |
| N=S1(=O)CCN(c2ccnc(-c3cnc4cnc(C(F)(F)F)cn34)n2)CC1 [IV-729] | < 6.00 |
| NC(=O)c1cn2c(-c3nccc(N4CCCC(CO)C4)n3)cnc2cn1 (stereo not shown) [IV-242, 3-(4-(3-(Hydroxymethyl)piperidin-1-yl)pyrimidin-2-yl)imidazo[1,2-a]pyrazine-6-carboxamide] | 7.00 to 8.00 |
| O=C1CN(C2CCCN(c3ccnc(-c4cnc5cnc(C(F)(F)F)cn45)n3)C2)CCN1 (stereo not shown) [IV-490, 4-(1-(2-(6-(Trifluoromethyl)imidazo[1,2-a]pyrazin-3-yl)pyrimidin-4-yl)piperidin-3-yl)piperazin-2-one] | 6.00 to 7.00 |
| C[C@@H]1CN(c2ccnc(-c3cnc4cnc(C(F)(F)F)cn34)n2)C[C@H](c2ccnn2C)N1 (racemic) [IV-667, Cis-3-(4-(3-Methyl-5-(1-methyl-1H-pyrazol-5-yl)piperazin-1-yl)pyrimidin-2-yl)-6-(trifluoromethyl)imidazo[1,2-a]pyrazine] | 6.00 to 7.00 |
| CC1CN(c2nccc(-c3cnc4cnc(C(F)(F)F)cn34)n2)C(C)C(c2cn[nH]c2)N1 (single isomer, unassigned) [IV-370, 3-(2-(2,5-Dimethyl-3-(1H-pyrazol-4-yl)piperazin-1-yl)pyrimidin-4-yl)-6-(trifluoromethyl)imidazo[1,2-a]pyrazine] | 6.00 to 7.00 |
| FC(F)(F)c1cn2c(-c3nccc(N4CCCC(n5ccc(C(F)(F)F)n5)C4)n3)cnc2cn1 (stereo not shown) [IV-664, 6-(Trifluoromethyl)-3-(4-(3-(3-(trifluoromethyl)-1H-pyrazol-1-yl)piperidin-1-yl)pyrimidin-2-yl)imidazo[1,2-a]pyrazine] | 6.00 to 7.00 |
| CS(=O)(=O)N1CCC2(CC1)CN(c1ccnc(-c3cnc4cnc(C(F)(F)F)cn34)n1)C2 [IV-698, 3-(4-(7-(Methylsulfonyl)-2,7-diazaspiro[3.5]nonan-2-yl)pyrimidin-2-yl)-6-(trifluoromethyl)imidazo[1,2-a]pyrazine] | 6.00 to 7.00 |
| N#C[C@@H]1CCN(c2ccnc(-c3cnc4cnc(C(F)(F)F)cn34)n2)C1 (single isomer, unassigned) [IV-521] | 6.00 to 7.00 |
| c1cc(-c2ccc3cc[nH]c3c2)nc(-c2cnc3cnccn23)c1 [IV-1, 3-(6-(1H-Indol-6-yl)pyridin-2-yl)imidazo[1,2-a]pyrazine] | 6.00 to 7.00 |
| COCC1CCCCN(c2ccnc(-c3cnc4cnc(C(F)(F)F)cn34)n2)C1 (stereo not shown) [IV-509, 3-(4-(3-(Methoxymethyl)azepan-1-yl)pyrimidin-2-yl)-6-(trifluoromethyl)imidazo[1,2-a]pyrazine] | 6.00 to 7.00 |
| CN1CC2(CCN(c3ccnc(-c4cnc5cnc(C(F)(F)F)cn45)n3)C2)OCC1=O (stereo not shown) [IV-565, 9-Methyl-2-(2-(6-(trifluoromethyl)imidazo[1,2-a]pyrazin-3-yl)pyrimidin-4-yl)-6-oxa-2,9-diazaspiro[4.5]decan-8-one] | 6.00 to 7.00 |
| O=C(N[C@H]1CCCN(c2ccnc(-c3cnc4cnc(C(F)(F)F)cn34)n2)C1)c1ccc(F)c(F)c1 [IV-746] | < 6.00 |
| CC1CCCN(c2ccnc(-c3cnc4cnc(C(F)(F)F)cn34)n2)C1C (stereo not shown) [IV-519, 3-(4-(2,3-Dimethylpiperidin-1-yl)pyrimidin-2-yl)-6-(trifluoromethyl)imidazo[1,2-a]pyrazine] | 7.00 to 8.00 |
| CC(=O)N1CCN(c2ccnc(-c3cnc4cnc(-c5ccccc5C#N)cn34)n2)CC1 [IV-301, 2-(3-(4-(4-Acetylpiperazin-1-yl)pyrimidin-2-yl)imidazo[1,2-a]pyrazin-6-yl)benzonitrile] | 6.00 to 7.00 |

Same assay, conditions: compounds of Formula II; 280 μM ATP, 4 nM GCN2 kinase

| Structure (SMILES) | pKi |
| --- | --- |
| [2H]C([2H])(NS(C)(=O)=O)C1CCCN(c2cc(-c3cnc4ccc(C(F)F)nn34)ncn2)C1 (stereo not shown) [II-524, N-((1-(6-(6-(Difluoromethyl)imidazo[1,2-b]pyridazin-3-yl)pyrimidin-4-yl)piperidin-3-yl)methyl-d2)methanesulfonamide] | > 8.00 |
| Cc1noc([C@H]2CN(c3cc(-c4cnc5ccc(C(F)(F)F)nn45)ccn3)C[C@@H](C)O2)n1 [II-744] | 6.00 to 8.00 |
| CC1CCC(NS(C)(=O)=O)CN1c1cc(-c2cnc3ccc(C(F)F)nn23)ncn1 (stereo not shown) [II-552, N-(1-(6-(6-(Difluoromethyl)imidazo[1,2-b]pyridazin-3-yl)pyrimidin-4-yl)-6-methylpiperidin-3-yl)methanesulfonamide] | 6.00 to 8.00 |
| CC1C(N=S(C)(C)=O)CCCN1c1cc(-c2cnc3ccc(C(F)F)nn23)ncn1 (stereo not shown) [II-579, ((1-(6-(6-(Difluoromethyl)imidazo[1,2-b]pyridazin-3-yl)pyrimidin-4-yl)-2-methylpiperidin-3-yl)imino)dimethyl-λ^6-sulfanone] | 6.00 to 8.00 |
| CC1CC(N=S(C)(C)=O)CN(c2cc(-c3cnc4ccc(C(F)F)nn34)c(F)cn2)C1 (single isomer, unassigned) [II-722, ((1-(4-(6-(Difluoromethyl)imidazo[1,2-b]pyridazin-3-yl)-5-fluoropyridin-2-yl)-5-methylpiperidin-3-yl)imino)dimethyl-λ^6-sulfanone] | 6.00 to 8.00 |
| N#CCC1CN(c2cc(-c3cnc4ccc(C(F)F)nn34)ncn2)CCO1 (stereo not shown) [II-512, 2-(4-(6-(6-(Difluoromethyl)imidazo[1,2-b]pyridazin-3-yl)pyrimidin-4-yl)morpholin-2-yl)acetonitrile] | 6.00 to 8.00 |
| CS(=O)(=O)NC1CN(c2cc(-c3cnc4ccc(C(F)F)nn34)ncn2)CCC1(F)F (stereo not shown) [II-597, N-(1-(6-(6-(Difluoromethyl)imidazo[1,2-b]pyridazin-3-yl)pyrimidin-4-yl)-4,4-difluoropiperidin-3-yl)methanesulfonamide] | 6.00 to 8.00 |
| CC1CCN(c2cc(-c3cnc4ccc(C(F)F)nn34)ncn2)CC1N=S(C)(C)=O (stereo not shown) [II-629, ((1-(6-(6-(Difluoromethyl)imidazo[1,2-b]pyridazin-3-yl)pyrimidin-4-yl)-4-methylpiperidin-3-yl)imino)dimethyl-λ^6-sulfanone] | 6.00 to 8.00 |
| CC1CN(c2cc(-c3cnc4ccc(C(F)F)nn34)ncn2)CC(CO)O1 (stereo not shown) [II-616, (4-(6-(6-(Difluoromethyl)imidazo[1,2-b]pyridazin-3-yl)pyrimidin-4-yl)-6-methylmorpholin-2-yl)methanol] | 6.00 to 8.00 |
| CC(NS(C)(=O)=O)c1cccc(-c2cc(-c3cnc4ccc(C(F)F)nn34)ncn2)c1 (stereo not shown) [II-609, N-[1-[3-[6-[6-(Difluoromethyl)imidazo[1,2-b]pyridazin-3-yl]pyrimidin-4-yl]phenyl]ethyl]methanesulfonamide] | > 8.00 |
| CC1CC(CS(C)(=O)=O)C(C)N(c2cc(-c3cnc4ccc(C(F)F)nn34)ncn2)C1 (stereo not shown) [II-588, 6-(difluoromethyl)-3-[6-[2,5-dimethyl-3-(methylsulfonylmethyl)-1-piperidyl]pyrimidin-4-yl]imidazo[1,2-b]pyridazine] | 6.00 to 8.00 |
| CS(C)(=O)=NC1CC(C(F)(F)F)CN(c2cc(-c3cnc4ccc(C(F)F)nn34)ncn2)C1 (stereo not shown) [II-654, ((1-(6-(6-(Difluoromethyl)imidazo[1,2-b]pyridazin-3-yl)pyrimidin-4-yl)-5-(trifluoromethyl)piperidin-3-yl)imino)dimethyl-λ^6-sulfanone] | 6.00 to 8.00 |
| CCS(C)(=O)=NC1CC(C)CN(c2cc(-c3cnc4ccc(C(F)F)nn34)ncn2)C1 (single isomer, unassigned) [II-640, ((1-(6-(6-(Difluoromethyl)imidazo[1,2-b]pyridazin-3-yl)pyrimidin-4-yl)-5-methylpiperidin-3-yl)imino)(ethyl)(methyl)-λ^6-sulfanone] | 6.00 to 8.00 |

Same assay, conditions: compounds of Formula III; 280 μM ATP, 4 nM GCN2 kinase

| Structure (SMILES) | pKi |
| --- | --- |
| c1ccc(-c2cc(-c3cnn4cccnc34)ccn2)cc1 [III-15, 3-(2-phenylpyridin-4-yl)pyrazolo[1,5-a]pyrimidine] | < 6.00 |
